Target: SMO heptahelical domain (Homo sapiens, UniProt Q99835)
Test: not given
Conditions: cited from earlier work

Sequence of SMO heptahelical domain (Q99835 28-787): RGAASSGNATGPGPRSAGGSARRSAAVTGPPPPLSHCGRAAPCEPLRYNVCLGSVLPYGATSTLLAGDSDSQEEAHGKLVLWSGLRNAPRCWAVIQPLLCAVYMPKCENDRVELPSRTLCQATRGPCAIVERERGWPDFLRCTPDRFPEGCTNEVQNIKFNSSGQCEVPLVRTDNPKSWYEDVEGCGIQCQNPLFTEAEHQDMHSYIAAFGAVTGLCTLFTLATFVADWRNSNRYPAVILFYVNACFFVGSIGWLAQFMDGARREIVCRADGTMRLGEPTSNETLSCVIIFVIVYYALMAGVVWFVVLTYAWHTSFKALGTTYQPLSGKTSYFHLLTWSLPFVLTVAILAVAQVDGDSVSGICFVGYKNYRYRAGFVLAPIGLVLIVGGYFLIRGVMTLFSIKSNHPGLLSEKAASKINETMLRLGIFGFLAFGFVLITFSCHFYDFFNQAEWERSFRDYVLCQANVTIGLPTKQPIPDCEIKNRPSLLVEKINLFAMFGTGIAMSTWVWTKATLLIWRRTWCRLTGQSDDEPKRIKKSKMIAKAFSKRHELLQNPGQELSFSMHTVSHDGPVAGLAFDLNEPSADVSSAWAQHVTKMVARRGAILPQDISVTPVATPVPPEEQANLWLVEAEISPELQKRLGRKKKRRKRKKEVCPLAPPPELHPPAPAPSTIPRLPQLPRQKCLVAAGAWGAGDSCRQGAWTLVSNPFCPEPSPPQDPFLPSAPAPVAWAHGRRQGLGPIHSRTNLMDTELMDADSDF

| Molecule | Kd [nM] |
| --- | --- |
| CNC1CCC(N(Cc2cccc(-c3ccncc3)c2)C(=O)c2sc3ccccc3c2Cl)CC1 (stereo not drawn) [SAG] | 59 |

Test system: Hh pathway (Gli-RE reporter, activated by SMO agonist SAG)
Test: Gli-luciferase reporter assay in SAG-treated NIH 3T3 Shh-light II cells
Assay type: cell-based
Conditions: 5 μM, Shh Light II cells, preliminary results
Method: FIG. 4. Effect of active natural compounds identified by the pharmacophore screening in a luciferase assay, where the gene reporter was Gli1 and the pathway was activated by the SAG molecule, a potent SMO agonist. Natural compounds were tested at three different concentrations (1, 10 and 20 μM) and their activity was compared to that of cyclopamine, the natural compound reference inhibitor of the Hedgehog pathway, which was tested at the same doses (1, 10 and 20 μM). On both graphs the activity of cyclopamine is reported as reference standard. (A) cyclopamine, 2,4,5,3′,4′-penta-Ome chalcone and Auriculasin; (B) cyclopamine, Martinoside, Jaceidin, 2,4,5,3′,4′-penta-Ome chalcone, 3,4-di-MDO-2′,4′,5′-tri-Ome dihydrochalcone.
FIG. 6. Dose-response curve of Glabrescione B in SAG (Smoothened Agonist, 200 nM) treated NIH 3T3 Shh-light II (Shh-LII) cells. Treatment time was 48 h and normalization was against Renilla luciferase. Shown is the fold increase of Hh reporter activity compared with cells not treated with SAG.
FIG. 19. Effect of derivatives NT8, NT9, NT10, NT11, NT12, NT13, NT14 and NT15 on the Hedgehog pathway, measured at 5 μM dose in a luciferase assay where the gene reporter was Gli1 and the pathway was activated by the SAG molecule, a potent SMO agonist. […]
To investigate the inhibitory properties of Glabrescione B on Hh signaling, the inventors examined its effects in NIH 3T3 Shh-light II (Shh-LII) cells stably incorporating an Hh-responsive (Gli-RE) reporter, in which induction of the pathway occurs following treatment with the SMO agonist SAG. […] The IC50 in this assay was 0.8 μM.
The ability of Glabrescione B to suppress Hh signaling was assessed in a cellular context of Hh pathway induction. To this end, the antagonist properties of Glabrescione B were determined in Shh Light II (ATCC, cat. # CRL-2795), a murine fibroblast NIH 3T3 cell line. These cells, stably incorporating the Gli-luc reporter and the pRL-TK Renilla reniformis (as described in Taipale, Chen et al. 2000) are a standard tool used to assay Hh pathway activity. The cells that reached the confluence were treated for 48 h with the SMO agonist SAG (200 nM, Alexis, cat. #ALX-270-426-M001) in absence or in presence of Glabrescione B at the amount indicated in FIG. 6. […] Control cells were treated with only DMSO (0.5%, SERVA, cat. #39757.02) Determination of luciferase activities was carried out using the Dual-Luciferase assay according to manufacturer's instructions (Dual-Luciferase® Reporter assay system; Promega, cat. # E1980). All presented data are firefly luciferase activity reported to the Renilla control activity. […] IC50 of 0.8 μM, represents the concentration of Glabrescione B necessary to have fifty percent of inhibition.
Evaluation of the Hh inhibitory activity of these molecules at 5 μM was preliminarily conducted in vitro on Shh Light II cells (see example 2).

| Molecule | Hh inhibitory activity compared with Glabrescione B |
| --- | --- |
| COc1cc(OC)c2c(=O)c(-c3ccc(OC)c(OCC=C(C)C)c3)coc2c1 [NT8, 3-[3′-(3-methyl-but-2-enyloxy)-4′-methoxyphenyl]-5,7-dimethoxy-4H-chromen-4-one] | more potent than Glabrescione B |
| COc1cc(OC)c2c(=O)c(-c3ccc(OC)c(OCc4ccccc4)c3)coc2c1 [NT9, 3-(3′-Benzyloxy-4′-methoxyphenyl)-5,7-dimethoxy-4H-chromen-4-one] | more potent than Glabrescione B |

Same assay, conditions: Gli1 gene reporter, pathway activated by SAG; cyclopamine as reference

| Molecule | effect on Hh pathway in luciferase assay |
| --- | --- |
| COc1ccc(C(=O)C=Cc2c(OC)cc(OC)c(OC)c2OC)cc1OC [2,3,4,6,3′,4′-hexa-OMe Chalcone] | inhibit the Hh pathway |
| COc1cc(OC)c(OC)cc1C=CC(=O)c1ccc(OC)c(OC)c1 [2,4,5,3′,4′-penta-OMe Chalcone] | inhibit the Hh pathway |
| COc1cc(OC)c(C(=O)CCc2ccc3c(c2)OCO3)cc1OC [3,4-di-MDO-2′,4′,5′-tri-OMe dihydrochalcone] | inhibit the Hh pathway |
| CC(C)=CCc1c2c(c(O)c3c(=O)c(-c4ccc(O)c(O)c4)coc13)C=CC(C)(C)O2 [Auriculasin] | inhibit the Hh pathway |
| COc1cc(-c2oc3cc(O)c(OC)c(O)c3c(=O)c2OC)ccc1O [Jaceidin] | inhibit the Hh pathway |
| COc1ccc(CCO[C@@H]2O[C@H](CO)[C@@H](OC(=O)/C=C/c3ccc(O)c(OC)c3)[C@H](O[C@@H]3O[C@@H](C)[C@H](O)[C@@H](O)[C@H]3O)[C@H]2O)cc1O [Martinoside] | inhibit the Hh pathway |

Same assay, conditions: pharmacophore screening hits

| Molecule | activity as Hh inhibitor in luciferase assay (classification) |
| --- | --- |
| C[C@@H]1CC[C@]2(C(=O)O)CC[C@]3(C)C(=CC[C@@H]4[C@@]5(C)CC[C@@H](O)[C@](C)(CO)[C@@H]5CC[C@]43C)[C@@H]2[C@]1(C)O [Barbinervic Acid] | not active |
| COc1ccc([C@@H]2CC(=O)c3c(O)cc(O[C@@H]4O[C@H](CO[C@@H]5O[C@@H](C)[C@H](O)[C@@H](O)[C@H]5O)[C@@H](O)[C@H](O)[C@H]4O)cc3O2)cc1O [Hesperidin] | not active |
| CC(C)=CCc1c(O)ccc(C(=O)C2C(c3c(O)cc(/C=C/c4ccc(O)cc4O)cc3O)C=C(C)CC2c2ccc(O)cc2O)c1O (stereo not drawn) [Kuwanol-E] | not active |
| O=c1c(O)c(-c2cc(O)c(O)c(O)c2)oc2cc(O)cc(O)c12 [Myricetin] | not active |
| C[C@@H]1O[C@@H](O[C@H]2[C@H](Oc3cc(O)c4c(c3)O[C@H](c3ccc(O)cc3)CC4=O)O[C@H](CO)[C@@H](O)[C@@H]2O)[C@H](O)[C@H](O)[C@H]1O [Naringin] | not active |
| CC1=CC2c3c(O)cc(/C=C/c4ccc(O)cc4O)cc3OC3(c4ccc(O)c5c4OC(C)(C)C=C5)Oc4cc(O)ccc4C(C1)C23 (stereo not drawn) [Sorocein-A] | not active |
| CC1=CC2c3c(ccc(C(=O)/C=C/c4ccc(O)cc4O)c3O)OC3(c4ccc(O)c5c4OC(C)(C)C=C5)Oc4cc(O)ccc4C(C1)C23 (stereo not drawn) [Sorocein-B] | not active |
| Isosophoranon | not active |
| Veratrin | not active |

Test system: not given
Test: not given
Conditions: not given

| melting point [°C] | Molecule |
| --- | --- |
| 126 | COc1cc(OC)c2c(=O)c(-c3ccc(OC)c(OCc4ccccc4)c3)coc2c1 [NT9, 3-(3′-Benzyloxy-4′-methoxyphenyl)-5,7-dimethoxy-4H-chromen-4-one] |
| 128.6 to 129.1 | COc1cc(OC)c2c(=O)c(-c3ccc(OC)c(OCc4ccc(C(F)(F)F)cc4)c3)coc2c1 [NT11, 5,7-Dimethoxy-3-[4-methoxy-3-(4-trifluoromethyl-benzyloxy)-phenyl]-chromen-4-one] |
| 130.7 to 131.8 | COc1cc(OC)c2c(=O)c(-c3ccc(OCC=C(C)C)c(OC)c3)coc2c1 [NT12, 5,7-Dimethoxy-3-[3′-methoxy-4′-(3-methyl-but-2-enyloxy)-phenyl]-chromen-4-one] |
| 142.8 to 143.7 | COc1cc(OC)c2c(=O)c(-c3ccc(OCc4ccccc4)c(OC)c3)coc2c1 [NT13, 3-(4-Benzyloxy-3-methoxy-phenyl)-5,7-dimethoxy-chromen-4-one] |
| 128.4 to 130.2 | COc1cc(OC)c2c(=O)c(-c3ccc(OCc4ccc(C(F)(F)F)cc4)c(OC)c3)coc2c1 [NT15, 5,7-Dimethoxy-3-[3-methoxy-4-(4-trifluoromethyl-benzyloxy)-phenyl]-chromen-4-one] |

Test system: Hh pathway (Gli-RE reporter, activated by SMO agonist SAG)
Test: Gli-luciferase reporter assay in SAG-treated NIH 3T3 Shh-light II cells
Assay type: cell-based
Conditions: Mus musculus, moderately active class

| Molecule | inhibition at 30 µM [%] |
| --- | --- |
| CC(C)=CCc1c2c(c(O)c3c(=O)c(-c4ccc(O)c(O)c4)coc13)C=CC(C)(C)O2 [Auriculasin] | ≤ 30 |

From US10093642B2, “Multitarget hedgehog pathway inhibitors and uses thereof” (UNIVERSITA' DEGLI STUDI DI SIENA, priority 2013, dated 2018)
